# Molecular target: Recombinant human cathepsin A (Homo sapiens (Human), UniProt P10619)
# Assay: Cathepsin A inhibitory activity (Bodipy FL-labeled bradykinin substrate, microfluidic capillary electrophoresis)
# Format: biochemical
# Conditions: read-out: CATHA IC50
# Description: Pharmacological Tests a) Cathepsin a Inhibitory Activity
# Recombinant human cathepsin A (residues 29-480, with a C-terminal 10-His tag; R&D Systems, #1049-SE) was proteolytically activated with recombinant human cathepsin L (R&D Systems, #952-CY). Briefly, cathepsin A was incubated at 10 μg/ml with cathepsin L at 1 μg/ml in activation buffer (25 mM 2-(morpholin-4-yl)-ethanesulfonic acid (MES), pH 6.0, containing 5 mM dithiothreitol (DTT)) for 15 min at 37° C.
# The activated cathepsin A was diluted in assay buffer (25 mM MES, pH 5.5, containing 5 mM DTT) and mixed with the test compound (dissolved in assay buffer containing (v/v) 3% DMSO) or, in the control experiments, with the vehicle in a multiple assay plate. After incubation for 15 min at room temperature, as substrate then bradykinin carrying an N-terminal® Bodipy FL (4,4-difluoro-5,7-dimethyl-4-bora-3a,4a-diaza-s-indacene-3-propionyl) label (JPT Peptide Technologies GmbH; dissolved in assay buffer) was added to the mixture. The final concentration of cathepsin A was 833 ng/ml and the final concentration of labeled bradykinin 2 μM. After incubation for 15 min at room temperature the reaction was stopped by the addition of stop buffer (130 mM 2-(4-(2-hydroxy-ethyl)-piperazin-1-yl)-ethanesulfonic acid, pH 7.4, containing (v/v) 0.013%° Triton X-100, 0.13% Coating Reagent 3 (Caliper Life Sciences), 6.5% DMSO and 20 μM ebelactone B (Sigma, #E0886)).
# Uncleaved substrate and product were then separated by a microfluidic capillary electrophoresis on a LabChip® 3000 Drug Discovery System (12-Sipper-Chip; Caliper Life Sciences) and quantified by determination of the respective peak areas. Substrate turnover was calculated by dividing product peak area by the sum of substrate and product peak areas, and the enzyme activity and the inhibitory effect of the test compound thus quantified.
# Chain of Recombinant human cathepsin A (P10619 29-326): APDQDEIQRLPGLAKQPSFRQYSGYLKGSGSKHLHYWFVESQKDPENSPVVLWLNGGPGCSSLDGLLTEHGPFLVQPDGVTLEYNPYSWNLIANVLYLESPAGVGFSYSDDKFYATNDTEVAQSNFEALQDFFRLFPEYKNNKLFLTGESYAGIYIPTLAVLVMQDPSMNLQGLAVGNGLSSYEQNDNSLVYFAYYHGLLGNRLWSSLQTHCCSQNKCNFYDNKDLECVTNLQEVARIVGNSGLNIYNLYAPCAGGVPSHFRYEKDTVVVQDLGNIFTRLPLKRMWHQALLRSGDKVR
# Chain of Recombinant human cathepsin A (P10619 327-480): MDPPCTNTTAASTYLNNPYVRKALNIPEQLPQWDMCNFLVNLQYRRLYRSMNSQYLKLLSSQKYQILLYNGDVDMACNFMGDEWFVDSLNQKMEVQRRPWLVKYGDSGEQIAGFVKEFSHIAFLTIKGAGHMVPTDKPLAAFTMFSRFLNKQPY
row,SMILES,IC50
1,Cc1nc(C(CC(=O)O)c2cccc(Br)c2)sc1C (stereo not drawn) [compound 2],7780 nM
2,Cc1nnc(C(CC(=O)O)c2cccc(-c3cccc(Cl)c3Cl)c2)o1 (stereo not drawn) [compound 15],634 nM
3,Cc1nnc(C(CC(=O)O)c2cccc(-c3ccncc3)c2)o1 (stereo not drawn) [compound 16],23200 nM
4,Cc1cnc(C(CC(=O)O)c2cccc(-c3cc(Cl)ccc3F)c2)s1 (stereo not drawn) [compound 50],228 nM
5,COc1cccc(-c2cccc(C(CC(=O)O)c3ncc(C)s3)c2)c1F (stereo not drawn) [compound 51],397 nM
6,COc1cc(F)c(-c2cccc(C(CC(=O)O)c3ncc(C)s3)c2)cc1F (stereo not drawn) [compound 52],466 nM
7,Cc1cnc(C(CC(=O)O)c2cccc(-c3ccccc3F)c2)s1 (stereo not drawn) [compound 53],631 nM
8,COc1ccc(-c2cccc(C(CC(=O)O)c3ncc(C)s3)c2)c(F)c1 (stereo not drawn) [compound 54],989 nM
9,CC(=O)c1ccccc1-c1cccc(C(CC(=O)O)c2ncc(C)s2)c1 (stereo not drawn) [compound 55],2300 nM
10,Cc1cnc(C(CC(=O)O)c2cccc(-c3ccccc3C(N)=O)c2)s1 (stereo not drawn) [compound 56],5380 nM
11,Cc1cnc(C(CC(=O)O)c2cccc(-c3ccncc3F)c2)s1 (stereo not drawn) [compound 57],7060 nM
12,Cc1cnc(C(CC(=O)O)c2cccc(-c3cncc(C(=O)N4CCOCC4)c3)c2)s1 (stereo not drawn) [compound 59],13600 nM
13,COc1ccc(-c2cccc(Cl)c2F)cc1C(CC(=O)O)c1ncc(C)s1 (stereo not drawn) [compound 61],954 nM
14,COc1ccc(-c2ccc(C)cc2F)cc1C(CC(=O)O)c1ncc(C)s1 (stereo not drawn) [compound 62],970 nM
15,COc1ccc(-c2cc(F)ccc2F)cc1C(CC(=O)O)c1ncc(C)s1 (stereo not drawn) [compound 63],975 nM
16,COc1ccc(-c2cc(F)ccc2C)cc1C(CC(=O)O)c1ncc(C)s1 (stereo not drawn) [compound 64],1200 nM
17,COc1ccc(-c2cc(Cl)ccc2F)cc1C(CC(=O)O)c1ncc(C)s1 (stereo not drawn) [compound 65],1230 nM
18,COc1ccc(-c2cc(F)ccc2Cl)cc1C(CC(=O)O)c1ncc(C)s1 (stereo not drawn) [compound 66],1250 nM

row,SMILES,IC50
1,COc1ccc(-c2cccc(Cl)c2C)cc1C(CC(=O)O)c1ncc(C)s1 (stereo not drawn) [compound 67],1310 nM
2,COc1ccc(-c2ccc(C)cc2)cc1C(CC(=O)O)c1ncc(C)s1 (stereo not drawn) [compound 68],1590 nM
3,COc1ccc(-c2cccc(F)c2F)cc1C(CC(=O)O)c1ncc(C)s1 (stereo not drawn) [compound 69],1770 nM
4,COc1ccc(-c2cccc(F)c2)cc1C(CC(=O)O)c1ncc(C)s1 (stereo not drawn) [compound 70],1960 nM
5,COc1ccc(-c2cccc(C)c2C)cc1C(CC(=O)O)c1ncc(C)s1 (stereo not drawn) [compound 71],2300 nM
6,COc1ccc(-c2ccccc2F)cc1C(CC(=O)O)c1ncc(C)s1 (stereo not drawn) [compound 72],2340 nM
7,COc1ccc(-c2cccc(C)c2F)cc1C(CC(=O)O)c1ncc(C)s1 (stereo not drawn) [compound 73],2420 nM
8,COc1ccc(-c2ccc(F)cc2F)cc1C(CC(=O)O)c1ncc(C)s1 (stereo not drawn) [compound 74],2650 nM
9,COc1ccc(-c2ccc(C)cc2C)cc1C(CC(=O)O)c1ncc(C)s1 (stereo not drawn) [compound 75],3090 nM
10,COc1ccc(-c2ccc(Cl)cc2)cc1C(CC(=O)O)c1ncc(C)s1 (stereo not drawn) [compound 76],3200 nM
11,COc1ccc(-c2ccc(OC)c(C(CC(=O)O)c3ncc(C)s3)c2)c(F)c1 (stereo not drawn) [compound 77],3270 nM
12,COc1ccc(-c2ccccc2C)cc1C(CC(=O)O)c1ncc(C)s1 (stereo not drawn) [compound 78],3280 nM
13,COc1ccc(-c2ccc(Cl)cc2F)cc1C(CC(=O)O)c1ncc(C)s1 (stereo not drawn) [compound 79],3570 nM
14,COc1ccc(-c2ccc(F)cc2C)cc1C(CC(=O)O)c1ncc(C)s1 (stereo not drawn) [compound 80],3730 nM
15,COc1ccc(-c2cccc(Cl)c2)cc1C(CC(=O)O)c1ncc(C)s1 (stereo not drawn) [compound 81],3740 nM
16,COc1ccc(-c2cccc(F)c2Cl)cc1C(CC(=O)O)c1ncc(C)s1 (stereo not drawn) [compound 82],4010 nM
17,COc1ccc(-c2ccc(C(F)(F)F)cc2)cc1C(CC(=O)O)c1ncc(C)s1 (stereo not drawn) [compound 83],4380 nM

# Other lines, results leading:
row,IC50,SMILES
1,1890 nM,CC(C)(C)c1cccc(-c2cccc(C(CC(=O)O)c3nccs3)c2)c1 (stereo not drawn) [compound 1]
2,784 nM,Cc1cccc(-c2cccc(C(CC(=O)O)c3nccs3)c2)c1 (stereo not drawn) [compound 3]
3,797 nM,Cc1cccc(-c2cccc(C(CC(=O)O)c3nccs3)c2)c1Cl (stereo not drawn) [compound 4]
4,967 nM,O=C(O)CC(c1cccc(-c2cccc(Cl)c2)c1)c1nccs1 (stereo not drawn) [compound 5]
5,1670 nM,Cc1c(Cl)cccc1-c1cccc(C(CC(=O)O)c2nccs2)c1 (stereo not drawn) [compound 6]
6,1750 nM,O=C(O)CC(c1cccc(-c2ccc(Cl)cc2)c1)c1nccs1 (stereo not drawn) [compound 7]
7,2040 nM,O=C(O)CC(c1cccc(-c2ccccc2Cl)c1)c1nccs1 (stereo not drawn) [compound 8]
8,2480 nM,Cc1cccc(-c2cccc(C(CC(=O)O)c3nccs3)c2)c1C (stereo not drawn) [compound 9]
9,2590 nM,O=C(O)CC(c1cccc(-c2ccccc2)c1)c1nccs1 (stereo not drawn) [compound 10]
10,2720 nM,O=C(O)CC(c1cccc(-c2cccc(F)c2Cl)c1)c1nccs1 (stereo not drawn) [compound 11]
11,3540 nM,Cc1ccccc1-c1cccc(C(CC(=O)O)c2nccs2)c1 (stereo not drawn) [compound 12]
12,3620 nM,O=C(O)CC(c1cccc(-c2cc(C(F)(F)F)ccc2F)c1)c1nccs1 (stereo not drawn) [compound 13]
13,4300 nM,O=C(O)CC(c1cccc(-c2ccc(F)cc2)c1)c1nccs1 (stereo not drawn) [compound 14]
14,588 nM,COc1cccc(-c2cccc(C(CC(=O)O)c3nccs3)c2)c1F (stereo not drawn) [compound 17]
15,769 nM,Cn1nc(-c2cccc(C(CC(=O)O)c3nccs3)c2)c2ccccc21 (stereo not drawn) [compound 18]
16,987 nM,O=C(O)CC(c1cccc(-c2ccc3c(c2)OCCO3)c1)c1nccs1 (stereo not drawn) [compound 19]
17,1110 nM,CCCOc1ccc(F)c(-c2cccc(C(CC(=O)O)c3nccs3)c2)c1 (stereo not drawn) [compound 20]
18,1180 nM,COc1cccc(-c2cccc(C(CC(=O)O)c3nccs3)c2)c1 (stereo not drawn) [compound 21]
19,1320 nM,COc1cc(F)c(-c2cccc(C(CC(=O)O)c3nccs3)c2)cc1F (stereo not drawn) [compound 22]
20,1390 nM,Nc1ccc(-c2cccc(C(CC(=O)O)c3nccs3)c2)c(F)n1 (stereo not drawn) [compound 23]
21,1500 nM,CCOc1cccc(-c2cccc(C(CC(=O)O)c3nccs3)c2)c1 (stereo not drawn) [compound 24]
22,1650 nM,COc1c(C)cc(-c2cccc(C(CC(=O)O)c3nccs3)c2)cc1C (stereo not drawn) [compound 25]
23,1670 nM,CCCOc1cccc(-c2cccc(C(CC(=O)O)c3nccs3)c2)c1 (stereo not drawn) [compound 26]

row,IC50,SMILES
1,1940 nM,N#CCOc1cccc(-c2cccc(C(CC(=O)O)c3nccs3)c2)c1 (stereo not drawn) [compound 27]
2,2250 nM,O=C(O)CC(c1cccc(-c2cccc(OC(F)(F)F)c2)c1)c1nccs1 (stereo not drawn) [compound 28]
3,2280 nM,COc1cc(-c2cccc(C(CC(=O)O)c3nccs3)c2)ccc1O (stereo not drawn) [compound 29]
4,2290 nM,O=C(O)CC(c1cccc(-c2ccc(OCC3CC3)cc2)c1)c1nccs1 (stereo not drawn) [compound 30]
5,2310 nM,CC(C)COc1cc(F)cc(-c2cccc(C(CC(=O)O)c3nccs3)c2)c1 (stereo not drawn) [compound 31]
6,2420 nM,N#CCOc1ccc(-c2cccc(C(CC(=O)O)c3nccs3)c2)cc1 (stereo not drawn) [compound 32]
7,2430 nM,O=C(O)CC(c1cccc(-c2ccc(OCc3ccccc3)c(F)c2)c1)c1nccs1 (stereo not drawn) [compound 33]
8,2460 nM,O=C(O)CC(c1cccc(-c2cccc(OCC(F)(F)F)c2)c1)c1nccs1 (stereo not drawn) [compound 34]
9,2770 nM,O=C(O)CC(c1cccc(-c2cccc(OCc3ccccc3)c2)c1)c1nccs1 (stereo not drawn) [compound 35]
10,2810 nM,CC(C)COc1ccc(-c2cccc(C(CC(=O)O)c3nccs3)c2)cc1 (stereo not drawn) [compound 36]
11,3200 nM,COc1ccc(C=O)c(-c2cccc(C(CC(=O)O)c3nccs3)c2)c1 (stereo not drawn) [compound 37]
12,7870 nM,O=C(O)CC(c1cccc(-c2ccc(Cl)c(OCc3ccccc3)c2)c1)c1nccs1 (stereo not drawn) [compound 38]
13,8350 nM,COc1ccc(-c2cccc(C(CC(=O)O)c3nccs3)c2)cn1 (stereo not drawn) [compound 39]
14,9540 nM,Cc1cc(-c2cccc(C(CC(=O)O)c3nccs3)c2)n(C)n1 (stereo not drawn) [compound 40]
15,11600 nM,O=C(O)CC(c1cccc(-c2cccnc2Cl)c1)c1nccs1 (stereo not drawn) [compound 41]
16,15100 nM,Cn1nccc1-c1cccc(C(CC(=O)O)c2nccs2)c1 (stereo not drawn) [compound 42]
17,19400 nM,O=C(O)CC(c1cccc(-c2ccncc2Cl)c1)c1nccs1 (stereo not drawn) [compound 43]
18,21200 nM,O=C(O)CC(c1cccc(-c2cccnc2)c1)c1nccs1 (stereo not drawn) [compound 44]
19,22600 nM,N#Cc1ccc(-c2cccc(C(CC(=O)O)c3nccs3)c2)cn1 (stereo not drawn) [compound 45]
20,23600 nM,O=C(O)CC(c1cccc(-c2ccnc(F)c2)c1)c1nccs1 (stereo not drawn) [compound 46]
21,24800 nM,O=C(O)CC(c1cccc(-c2ccncc2F)c1)c1nccs1 (stereo not drawn) [compound 47]
22,7540 nM,Cc1cnc(C(CC(=O)O)c2cccc(-c3cccnc3)c2)s1 (stereo not drawn) [compound 58]
23,13700 nM,Cc1cnc(C(CC(=O)O)c2cccc(-c3ccncc3)c2)s1 (stereo not drawn) [compound 60]

# From patent US9199947B2, “Biaryl-propionic acid derivatives and their use as pharmaceuticals” (SANOFI, priority 2013, dated 2015)
